Read-outs that look alike come from different tables or passages of the source.

As usually defined, the viability is a read-out of living cells in per cent, often relative to untreated cells. A high value points to less harm to the cells. In general, IC50 refers to the point on the concentration scale where inhibition reaches its midpoint.

Data set [1] has as its system HCT-116 human colorectal carcinoma cells. Particulars: cited from earlier work.
For data set [2], the system named is colorectal cancer cell line CT26. The arrangement: method as in PMID 29459827. The conditions noted are these: cited from earlier work.
The test system of data set [3] is Caco-2 cells. The experiment in a line: Intracellular ROS (DCFDA, flow cytometry), Caco-2. The conditions noted are these: compound 50 µM, 24 h. The format is cell-based. As for the experimental part: (§1) The cells were then equally divided for each assay.
(§2) Intracellular ROS level assessment was performed as described by Silva et al., 2022 [65], using dichlorodihydrofluorescein diacetate (DCFDA). Cells obtained in the previous step were centrifuged, the supernatant discarded, and 200 µL of DCFDA (10 µM in FBS-free DMEM) was added. Cells were incubated for 45 min (37 °C, in the dark), washed to remove excess probe, and resuspended in PBS for data acquisition.
On the technique in general: A flow cytometer gives signals particle by particle.

Data set [4] in a line: Alamar Blue cell viability assay, Caco-2. The format is cell-based, human. The conditions noted are these: human, Caco-2. The protocol:
(§3) The safety profile of T. carnosus AD and HE extracts was evaluated in Caco-2 and HepG2 cells using an Alamar Blue® (Invitrogen; Alfagene, Lisboa, Portugal) assay. An initial screening was performed for all extracts at concentrations ranging between 100 and 1000 µg/mL. Due to the higher toxicity of the HE extracts, which was previously described for various extracts of Thymus species using the same extraction methods (e.g., T. mastichina and Thymus zygis), a different set of concentrations was used for the HE extracts (between 100 and 300 µg/mL for Caco-2 cells and 50 and 150 µg/mL for HepG2 cells). Figure 1 presents the data related to the cell viability assays in Caco-2 (panels A–E) and HepG2 cells (panels F–J) exposed to T. carnosus extracts, as indicated.
(§4) The safety profile of T. carnosus extracts was assessed in Caco-2 and HepG2 cells. Caco-2 (human colon adenocarcinoma cell line) were obtained from CLS (Cell Lines Service, Eppelheim, Germany), and HepG2 (human hepatocellular carcinoma cell line) were obtained from ATCC (American Type Culture Collection, Manassas, VA, USA).
(§5) Cell culture maintenance, handling, subculturing, and seeding were performed as described by Silva et al., 2020 [5], and cell viability was assessed using an Alamar Blue® assay, as described by Andreani et al., 2014 [64]. Concentrations ranged between 100 and 1000 µg/mL for AD extracts in both cell lines and 100 to 300 µg/mL or 50 to 150 µg/mL for HE extracts in Caco-2 and HepG2 cells, respectively. The effect of individual compounds on cell viability was assessed for concentrations ranging from 50 to 300 µM. All test solutions were prepared by diluting the samples in FBS-free culture media from the stock solutions described in Section 3.2, just prior to being used.
(§6) The results are presented as mean ± SD of at least three independent assays. The calculation of IC50 values was performed as described by Silva et al., 2020 [5]. Data analysis, graphical design, and statistical analysis were performed using Microsoft Office Excel (Professional Plus 2019; Microsoft Corporation, Washington, DC, USA) and GraphPad Prism (Version 8; GraphPad Software Inc., San Diego, CA, USA). Flow cytometry data analysis was performed using BD Accuri™ C6 Software, version 1.0.264.21 (Becton Dickinson, San Diego, CA, USA).
On the technique in general: Resazurin is reduced to fluorescent resorufin, in cell work by metabolically active cells.

Data set [5] has as its system Caco-2 cells. The data set can be described thus: Alamar Blue cell viability assay, Caco-2. The format is cell-based, human. The conditions noted are these: Homo sapiens, Caco-2. As for the experimental part:
as §3, §4, §5, §6

Data set [6] concerns Caco-2 cells. Particulars: Caco-2; cited from earlier work.
Data set [7] has as its system Caco-2 cells. The experiment in a line: Annexin V-FITC/PI apoptosis/necrosis, Caco-2. The format is cell-based. Particulars: compound 50 µM, 24 h. As for the experimental part:
as §1
(§7) For the assessment of apoptotic/necrotic cell death, an Annexin V-FITC (Thermo Fisher Scientific, Waltham, MA, USA) and propidium iodide (PI; Merck, Darmstadt, Germany) double-staining assay was used to evaluate the apoptotic/necrotic cell death induced by T. carnosus extracts and by individual phytochemicals, as described previously. Briefly, after detachment and washing, the supernatant was discarded, and 200 µL of Annexin V-FITC (1:200 dilution in Annexin-binding buffer [10 mM HEPES sodium salt, 150 mM NaCl, 5 mM KCl, 5 mM MgCl2, and 1.8 mM CaCl2; pH = 7.4]) was added. Cells were incubated for 20 min (room temperature, in the dark). After incubation, 5 µL of propidium iodide (PI; 50 µg/mL) was added, the cells were incubated for 5 min on ice (in the dark), and the data were acquired.

Data set [8] relates to HepG2 cells. The data set can be described thus: Mitochondrial membrane potential (JC-1, flow cytometry), HepG2. The format is cell-based, human. The conditions noted are these: compound 50 µM, 24 h. The protocol:
Flow cytometry was used to analyze the effect of T. carnosus extracts on intracellular ROS, modulation of mitochondrial membrane potential (MMP), cell cycle arrest, and apoptotic/necrotic cell death induction.
Both one- and two-color assays were performed using a BD Accuri™ C6 cytometer (Becton Dickinson, Franklin Lakes, NJ, USA), and 10,000 gated events were collected from each sample [1]. For flow cytometry assays, cells were handled as described previously but seeded at a density 5 × 10^4 cells/mL (750 μL/well) in 12-well plates. Caco-2 and HepG2 cells were incubated for 24 h with the extracts (100 µg/mL) or individual phytochemicals (50 µM) diluted in FBS-free culture media h. After incubation, test solutions were removed; the cells were washed with PBS and detached from the plates using trypsin-EDTA. Once transferred to centrifuge tubes, the cells were centrifuged (bench micro-centrifuge; 3000 rpm; 3 min), the supernatant was discarded, and a new wash cycle was performed. The cells were then equally divided for each assay. A negative control was used in all assays consisting of nonexposed cells incubated only with culture media.
Mitochondrial membrane potential (MMP) was evaluated using 5,5″,6,6″-tetrachloro-1,1″,3,3″-tetraethylbenzimidazolylcarbocyanineiodide (JC-1). Cells were processed as described for DCFDA but incubated with 200 µL of JC-1 (2 µM, in FBS-free DMEM) for 20 min (37 °C, in the dark).

Data set [9] concerns HepG2 cells. The data set can be described thus: Annexin V-FITC/PI apoptosis/necrosis, HepG2. The conditions noted are these: compound 50 µM, 24 h. In kind it is cell-based, human. As for the experimental part:
as §1, §7

The test system of data set [10] is HepG2 cells. The experiment in a line: Intracellular ROS (DCFDA, flow cytometry), HepG2. In kind it is cell-based, human. Particulars: compound 50 µM, 24 h. The protocol:
as §1, §2

The test system of data set [11] is Caco-2 cells. The experiment in a line: Cell cycle arrest (PI, flow cytometry), Caco-2. The format is cell-based. Particulars: compound 50 µM, 24 h. As for the experimental part: as §1
(§8) Cell cycle arrest assessment was performed as described in [1]. Cells were processed as described above until cell detachment and centrifuged, after which the second washing step was performed with ice-cold PBS (0 °C). After centrifugation, the supernatant was discarded, and cells were fixed with 500 µL of ethanol:PBS solution (70:30, % v/v, previously cooled at −20 °C) for at least 4 h at −20 °C. After fixation, two washing cycles were performed: the first with ice-cold PBS (0 °C) and the second with room-temperature PBS, followed by the addition of 200 µL of a PBS solution containing PI (50 µg/mL), RNAse A (50 µg/mL), and Triton X-100 (0.1%). Cells were incubated for 30 min at 37 °C, and then cells were washed once with PBS to remove the staining solution. After resuspension in PBS, the data were acquired.

The nature of data set [12]: Alamar Blue cell viability assay, HepG2. In kind it is cell-based, human. Particulars: human. The protocol:
as §3, §4, §5, §6

The subject of data set [13] is HepG2 cells. The data set can be described thus: Alamar Blue cell viability assay, HepG2. The conditions noted are these: Homo sapiens, HepG2. The format is cell-based, human. The protocol: as §3, §4, §5, §6
In data set [14] the test system is HepG2 cells. The data set can be described thus: Cell cycle arrest (PI, flow cytometry), HepG2. In kind it is cell-based, human. Particulars: compound 50 µM, 24 h. As for the experimental part:
as §1, §8

Data set [15] has as its system HepG2 cells. The conditions noted are these: cited from earlier work.
For data set [16], the system named is hepatocarcinoma cells (HuH7). The arrangement: method as in PMID 20415421. Particulars: 20-80 µM; cited from earlier work.
The test system of data set [17] is human glioblastoma cells (DBTRG-05MG). The arrangement: method as in PMID 25131308. Particulars: cited from earlier work.
For data set [18], the system named is colorectal cancer (HCT15) cells. The arrangement: method as in PMID 12046077. The conditions noted are these: cited from earlier work.
Details of data set [19]: method as in PMID 31344882, PMID 26042707. Particulars: cited from earlier work.
[20] abbreviates: 24 h exposure, read-out: IC50 (µM) - Caco-2 cells: 24 h.
Where [21] appears, read: 48 h exposure, read-out: IC50 (µM) - Caco-2 cells: 48 h.
Where [22] appears, read: 24 h exposure, read-out: IC50 (µM) - HepG2 cells: 24 h.
Where [23] appears, read: 48 h exposure, read-out: IC50 (µM) - HepG2 cells: 48 h.

`O=C(/C=C/c1ccc(O)c(O)c1)O[C@H](Cc1ccc(O)c(O)c1)C(=O)O` [Rosmarinic acid]: the “cell cycle effect, HCT-116” value in [1] is reported as “cell cycle arrest in G0/G1”. Also, in [2], the “cell cycle effect, CT26” value is on record as “cell cycle arrest in G0/G1”. Also, in [3], the “change in intracellular ROS, Caco-2” value was “neither RA nor eriodictyol induced ROS increases”. For the same compound, the viability at 24 h, 300 µM in data set [4] was 87.8%; in data set [12], 65.2%. This compound returned a viability at 48 h, 300 µM in [4] of 72.6%. Also, the half-inhibitory concentration (IC50) in [5] (setting [20]) was greater than 300 µM; in data set [5] (setting [21]), greater than 300 µM; in data set [13] (setting [22]) it was greater than 300 µM; in [13] (setting [23]) it was greater than 300 µM; in data set [15] (read-out: IC50 (48 h), HepG2 cells, 48 h), 91 µM. The “concentrations that did not reduce Caco-2 cell viability” value in data set [6] was no more than 90 µM. The “cell death induction, Caco-2” value in data set [7] is “significant increase in both late apoptosis and necrosis”. For the same compound, the “MMP modulation, HepG2” value in data set [8] was “slight decrease in MMP”. Moreover, the “cell death induction, HepG2” value in data set [9] is on record as “necrosis in HepG2 cells”. In data set [10], the “change in intracellular ROS, HepG2” value is recorded as “significant (p < 0.05) increase in intracellular HepG2 ROS levels”. Moreover, the “cell cycle effect, Caco-2” value in data set [11] was “cell cycle arrest in G0/G1”. Moreover, in data set [14], the “cell cycle effect, HepG2” value is recorded as “induced cell cycle arrest in both cell lines but in different phases”. In data set [15], the “concentrations giving significant reduction in HepG2 cell viability” value is no less than 34.69 µM.

Turning to `C[C@H]1[C@H](C)CC[C@]2(C(=O)O)CC[C@]3(C)C(=CC[C@@H]4[C@@]5(C)CC[C@H](O)C(C)(C)[C@@H]5CC[C@]43C)[C@H]12` [Ursolic acid, ursolic acid], the “MMP modulation, HuH7” value in [16] is listed as “reduce MMP”. For the same compound, the “cell death type, DBTRG-05MG” value in [17] (17.50 µM) is given as “mitochondria-dependent necrosis”. In data set [17], the “MMP modulation, DBTRG-05MG” value was “transient hyperpolarization of the mitochondria membrane”. Besides, the “change in intracellular ROS, Caco-2” value in [3] is given as “increase in ROS”. Moreover, the concentration for half-maximal inhibition (IC50) in data set [5] (setting [20]) was 59 ± 1.35 µM; in data set [5] (setting [21]) it was 44.3 ± 2.31 µM; in data set [13] (setting [22]), 79.6 ± 2.45 µM; in [13] (setting [23]), 75.2 ± 1.97 µM; in data set [15] (read-out: IC50, HepG2 cells, 72 h) it was 41 µM. Besides, the “cell cycle effect, HCT15” value in [18] is reported as “cytostatic effect in the G0/G1 phase”. Besides, the “percentage of cells in late apoptosis, Caco-2” value in data set [7] is listed as ~ 70%. Further, in [7], the “percentage of cells in necrosis, Caco-2” value is ~ 12%. Also, in data set [8], the “MMP modulation, HepG2” value was “slight increase”. The “cell death induction, HepG2” value in data set [9] is on record as “only slightly increased (p < 0.05) the percentage of necrotic cells”. In data set [10], the “change in intracellular ROS, HepG2” value was “significant (p < 0.05) increase in intracellular HepG2 ROS levels”. Besides, the “cell cycle effect, Caco-2” value in [11] (listed as UA) was “cell cycle arrest in G0/G1”. Moreover, the “lipophilicity” value in data set [19] is “high lipophilicity”. In addition, the “water solubility” value in [19] was “poor water solubility”. Moreover, in [14], the “cell cycle effect, HepG2” value is given as “no UA-induced cytostatic effect”.

The record behind these values is article PMC11120720, “Linking Variability in Phytochemical Composition with Safety Profile of Thymus carnosus Boiss. Extracts: Effect of Major Compounds and Evaluation of Markers of Oxidative Stress and Cell Death” (International Journal of Molecular Sciences, 2024).
